According to patent US6420570B1, “Psoralen compounds” (priority 1993, dated 2002):
Where a name gives a salt, the structure may show the parent alone.

Assays:
DNA = settings: photoactivated binding; NCI Monograph 66:21 (1984); cited from earlier work
[1] = test system: Duck Hepatitis B Virus (DHBV); assay: Inactivation of Duck Hepatitis B Virus in platelet concentrate, PCR amplification read-out; settings: 5 J/CM^2 UVA
Protocol: This example describes the protocol for inactivation of another virus, Duck Hepatitis B Virus (DHBV), using compounds of the present invention. DHBV in duck yolk was added to platelet concentrate (PC) to a final concentration of 2×10^7 particles per mL and mixed by gentle rocking for ≧15 min. […] Samples, including controls without added psoralen, were irradiated with 5 J/CM^2 UVA, with mixing at 1 J/cm^2 increments. After irradiation, leukocytes and platelets were separated from virus by centrifugation. […] Samples were extracted with phenolchloroform and chloroform, followed by ethanol precipitation. […] PCR amplicons were generated using primers pairs DCD03/DCD05 (127 bp), DCD03/DCD06 (327 bp) and DCD03/DCD07 (1072 bp). PCR was performed in a standard PCR buffer containing 0.2 mM each deoxyribonucleoside 5′-triphosphates (dATP, dGTP, dCTP, and dTTP), 0.5 […], and 0.5 units Taq polymerase per […]. 30 cycles of amplification were performed with the following thermal profile: 95° C. 30 sec, 60° C. 30 sec, 72° C. 1 min. The amplification was followed by a 7 min incubation at 72° C. to yield full length products. [[…]-^32P] dCTP was added at an amount of […] in order to detect and quantify the resulting products. Products were separated by electrophoresis on denaturing polyacrylamide slab gels and counted. The absence of signal in a given reaction was taken to indicate effective inactivation of DHBV.

R17 = R17 bacteriophage inactivation screen, varying compound concentration; type: cell-based; settings: for R17 Log Kill 8 uM / R17 Log Kill 16 uM / R17 Log Kill 32 uM: Table 5, starting titer approx. 7.2 logs
Protocol: The assay used to predict pathogen inactivation efficiency and to determine nucleic acid binding of the photoreactive binding compounds of the present invention was that in which a bacteriophage, R17, in solution with the desired substrate was irradiated. The ability of the phage to subsequently infect bacteria and inhibit their growth was measured. The bacteriophage was selected for its relatively accessible nucleic acid such that the culture growth inhibition would accurately reflect nucleic acid damage by the test compounds. The bacteriophage assay for nucleic acid binding to test compounds offers a safe and inexpensive procedure to identify compounds likely to display efficient pathogen inactivation. […] An aliquot (0.5 mL) was transferred to a 1.5 mL, snap-top polyethylene tube. An aliquot (0.004-0.040 mL) of the test compound stock solution prepared in water, ethanol or dimethylsulfoxide at 0.80-8.0 mM was added to the tube. Compounds were tested at concentrations between 4 μM and 320 μM. (AMT is commercially available from HRI, Inc., Concord, Calif.; 8-MOP is commercially available from Sigma, St. Louis, Mo.). The tubes were placed in a light device as described in EXAMPLE 1 and irradiated for between 1 and 10 minutes. […] To make the dilutions, a 0.100 mL aliquot of the irradiated solution of phage and test compound was added to the first dilution tube of 0.4 mL of media then 0.020 mL of this solution was added to the second tube of 0.5 mL medium (1:25). The second solution was then diluted serially (1:25) into the remaining tubes. […] After the top agar hardened, the plates were incubated at 37° C. overnight. The plaque forming units were then counted the following morning and the titer of the phage remaining after phototreatment was calculated based on the dilution factors. The following controls were run: the “phage only” in which phage was not treated with test compound and not irradiated (listed as “starting titer” in the tables below); the “UV only” in which the phage was irradiated in the absence of test compound; and the “dark” control in which the phage/test compound solution was not irradiated before it was diluted and plated.

TA1538 = assay: Ames assay, dark mutagenicity, strain TA1538
Protocol: (§1) In this example the compounds of the present invention are tested for their dark mutagenicity using an Ames assay. The procedures used for the Salmonella mutagenicity test as described in detail by Maron and Ames were followed exactly. Maron, D. M. and B. N. Ames, Mutation Research 113:173 (1983). A brief description for each procedure is given here. The tester strains TA97a, TA98, TA100, TA102, TA1537 and TA1538 were obtained from Dr. Ames. TA97a, TA98, TA1537 and TA1538 are frameshift tester strains. TA100 and TA102 are base-substitution tester strains. Upon receipt each strain was cultured under a variety of conditions to confirm the genotypes specific to the strains.
(§2) The first tests done with the strains were to determine the range of spontaneous reversion for each of the strains. With each mutagenicity experiment the spontaneous reversion of the tester strains to histidine independence was measured and expressed as the number of spontaneous revertants per plate. This served as the background controls.
(§3) For all experiments, the pre-incubation procedure was used. In this procedure one vial of each tester strain was thawed and 20 μL of this culture was added to 6 mL of Oxoid Nutrient Broth #2. This solution was allowed to shake for 10 hours at 37° C. In the pre-incubation procedure, 0.1 mL of this overnight culture was added to each of the required number of sterile test tubes. To half of the tubes 0.5 mL of a 10% S-9 solution containing Aroclor 1254 induced rat liver extract (Molecular Toxicology Inc., Annapolis, MD), and MgCl2, KCl, glucose-6-phosphate, NADP, and sodium phosphate buffer (Sigma, St. Louis. Mo.) were added. To the other half of the tubes 0.5 mL of 0.2M sodium phospate buffer, pH 7.4, was used in place of the S-9 mixture (the -S9 samples) Finally 0.1 mL of the test solution containing either 0.0.1, 0.5, 1, 5, 10, 50, 100, 250, or 500 μg/mL of the test compound was added. The 0.7 mL mixture pre-incubated while shaking for 20 minutes at 37° C. After shaking, 2 mL of molten top agar supplemented with histidine and biotin were added to the 0.7 mL mixture and immediately poured onto a minimal glucose agar plate (volume of base agar was 20 ml.). The top agar was allowed 30 minutes to solidify and then the plates were inverted and incubated for 44 hours at 37° C. After incubation the number of revertant colonies on each plate were counted. […] (“n” represents the number of replicates performed for each data point.)
(§4) Maron and Ames (1983) describe the conflicting views with regard to the statistical treatment of data generated from the test.

[2] = test system: Salmonella tester strains; assay: Ames assay, dark mutagenicity, overall over tester strains; settings: for mutagenicity as defined by the Ames test: two-fold or greater increase in revertants above background and dose dependent response
Protocol: as §1, §2, §3, §4

cell-free virus (HIV) = type: cell-based
Protocol: Pathogen inactivation efficiency of several compounds of the present invention was evaluated by examining the ability of the compounds to inactivate cell-free virus (HIV). Inactivation of cell-free HIV was performed as follows.
As in the R17 assay, small aliquots of the compounds listed in TABLES 8 and 9, below, at the concentrations listed in the table, were added to stock HIV-1 to a total of 0.5 mL. The stock HIV (10^5-10^7 plaque forming units/mL) was in DMEM/15% FBS. […] Controls included HIV-1 stock only, HIV-1 plus UVA only, and HIV-1 plus the highest concentration of each psoralen tested, with no UVA. Post irradiation, all samples were stores frozen at −70° C. until assayed for infectivity by a microtiter plaque assay. Aliquots for measurement of residual HIV infectivity in the samples treated with a compound of the present invention were withdrawn and cultured.
Residual HIV infectivity was assayed using an MT-2 infectivity assay. […] The assay medium was 85% DMEM (with a high glucose concentration) containing 100 μg of streptomycin, 100 U of penicillin, 50 μg of gentamicin, and 1 μg of amphotericin B per mL, 15% FBS and 2 μg of Polybrene (Sigma Chemical Co., St. Louis, Mo.) per mL. Test and control samples from the inactivation procedure were diluted in 50% assay medium and 50% normal human pooled plasma. The samples were serially diluted directly in 96-well plates (Corning Glass Works, corning, N.Y.). The plates were mixed on an oscillatory shaker for 30 seconds and incubated at 37° C. in a 5% CO2 atmosphere for 1 to 18 hours. […] After an additional 1 hour of incubation at 37° C. in 5% CO2, 0.075 mL of assay medium containing 1.6% SeaPlaque agarose (FMC Bioproducts, Rockland, me.) and prewarmed to 38.5° C. was added to each well. The plates were kept at 37° C. for a few minutes until several plates had accumulated and then centrifuged in plate carriers at 600×g for 20 minutes in a centrifuge precooled to 10° C. In the centrifuge, cell monolayers formed prior to gelling of the agarose layer. The plates were incubated for 5 days at 37° C. in 5% CO2 and stained by the addition of 0.05 mL of 50 μg/mL propidium iodide (Sigma Chemical Co.) in phosphate-buffered saline (pH 7.4) to each well. After 24 to 48 hours, the red fluorescence-stained microplaques were visualized by placing the plates on an 8,000 μW/cm^2 304 nm UV light box (Fotodyne, Inc., New Berlin, Wis.). The plaques were counted at a magnification of ×20 to ×25 through a stereomicroscope. “n” represents the number of runs for which the data point is an average.

TA1537 = assay: Ames assay, dark mutagenicity, strain TA1537
Protocol: as §1, §2, §3, §4

TA102 = assay: Ames assay, dark mutagenicity, strain TA102
Protocol: as §1, §2
For all experiments, the pre-incubation procedure was used. In this procedure one vial of each tester strain was thawed and 20 μL of this culture was added to 6 mL of Oxoid Nutrient Broth #2. This solution was allowed to shake for 10 hours at 37° C. […] After incubation the number of revertant colonies on each plate were counted. […]

[3] = Table 6, 1 minute irradiation = 1.2 J/cm^2, starting titer approx. 7.1 logs
[4] = Table 7, 1 minute irradiation, starting titer approx. 7.1 logs
[5] = Table 8, 1 minute irradiation, HIV starting titer approximately 5 logs

Cc1oc2c(C)c3oc(=O)cc(C)c3cc2c1CNCCN (as salt: hydrochloride) [Compound 1, 4′-(4-amino-2-aza)butyl-4,5′,8-trimethylpsoralen dihydrochloride]
melting point: 320 to 322 °C (dec.)

Cc1oc2c(C)c3oc(=O)cc(C)c3cc2c1CNCCCN (as salt: hydrochloride) [Compound 5, 4′-(5-amino-2-aza)pentyl-4,5′,8-trimethylpsoralen dihydrochloride]
melting point: 288 °C (dec.)

Cc1oc2c(C)c3oc(=O)cc(C)c3cc2c1CN [AMT, 4′-Aminomethyl-4,5′,8-trimethylpsoralen, reference compound]
DNA base pairs per adduct (up to 1 AMT adduct per) (DNA): 3.5 DNA base pairs
PCR amplification of the 1072 bp amplicon ([1]; platelet concentrate): a signal could be detected
PCR amplification of the 1072 bp amplicon ([1]; 70 and 100 mM levels, platelet concentrate): inhibited PCR amplification
R17 Log Kill 8 uM (R17; 8 uM, 1 minute irradiation): 2.7 log
R17 Log Kill 16 uM (R17; 1 minute irradiation): 4.6 log
R17 Log Kill 32 uM (R17; 1 minute irradiation): >6.2 log
R17 log kill 16 uM (R17; [3]): 4.5 log
R17 log kill 32 uM (R17; [3]): 4.8 log
R17 log kill 16 uM (R17; [4]): >6 log
R17 log kill 32 uM (R17; [4]): >6 log
dose at which frameshift mutagenicity was shown (TA1538; TA1538): 1 μg/plate
revertant colonies per plate (TA1538; TA1538 +S9, 0.5 μg/plate): 13
revertant colonies per plate (TA1538; TA1538 +S9, 1 μg/plate): 37
revertant colonies per plate (TA1538; TA1538 +S9, 5 μg/plate): 177
revertant colonies per plate (TA1538; TA1538 +S9, 10 μg/plate): 255
revertant colonies per plate (TA1538; TA1538 −S9, 0.5 μg/plate): 4
revertant colonies per plate (TA1538; TA1538 −S9, 1 μg/plate): 4
revertant colonies per plate (TA1538; TA1538 −S9, 5 μg/plate): 13
base-substitution mutagenicity ([2]; base-substitution tester strains TA100 and TA102): no significant base-substitution mutations
concentration at which mutagenicity was displayed ([2]; comparison with Compound 6): 5 μg/plate
HIV Log Kill 16 μM (cell-free virus (HIV); Table 8, 16 μM, 1 minute irradiation, HIV starting titer approximately 5 logs): 1.4 log
dose at which frameshift mutagenicity was shown (TA1537; TA1537): 5 μg/plate
revertant colonies per plate (TA1537; TA1537 −S9, 100 μg/plate): 2058

Cc1oc2c(C)c3oc(=O)cc(C)c3cc2c1CCN [Compound 3, 4′-(2-aminoethyl)-4,5′,8-trimethylpsoralen Hydrochloride]
R17 Log Kill 8 uM (R17; 8 uM, 1 minute irradiation): >6.2 log
R17 Log Kill 16 uM (R17; 1 minute irradiation): >6.2 log
R17 Log Kill 32 uM (R17; 1 minute irradiation): >6.2 log
R17 log kill 8 uM (R17; Table 6, 8 uM, 1 minute irradiation = 1.2 J/cm^2, starting titer approx. 7.1 logs): 5.6 log
R17 log kill 16 uM (R17; [3]): >6.1 log
mutagenicity as defined by the Ames test [2]: no mutagenicity
HIV Log Kill 32 μM (cell-free virus (HIV); [5]): 2.7 log
HIV Log Kill 64 μM (cell-free virus (HIV); [5]): >3.8 log
HIV inactivation activity compared with AMT (cell-free virus (HIV); concentrations of 64 μM of compound or higher): significantly more active than AMT

Cc1oc2c(C)c3oc(=O)cc(C)c3cc2c1COCCCN [Compound 4, 4′-(5-amino-2-oxa)pentyl-4,5′,8-trimethylpsoralen]
R17 log kill 16 uM (R17; [3]): 2.3 log
R17 log kill 32 uM (R17; [3]): 4.3 log
R17 log kill 64 uM (R17; Table 6, 64 uM, 1 minute irradiation = 1.2 J/cm^2, starting titer approx. 7.1 logs): >6.1 log
mutagenicity as defined by the Ames test [2]: no mutagenicity
HIV Log Kill 32 μM (cell-free virus (HIV); [5]): 2.2 log
HIV Log Kill 64 μM (cell-free virus (HIV); [5]): >3.6 log

COc1c2occc2cc2ccc(=O)oc12 [Compound 8-MOP, 8-Methoxypsoralen]
dose at which the only mutagenic response (weak base-substitution mutagen) was detected (TA102; TA102): 500 μg/plate

Cc1oc2c(C)c3oc(=O)cc(C)c3cc2c1COCCN [Compound S-59]
PCR of the smaller amplicons compared with AMT ([1]; 127 bp and 327 bp amplicons, same concentrations): inhibited PCR of the smaller amplicons better than did AMT
PCR of the 1072 bp amplicon ([1]; all concentrations (35, 70, and 100 mM), platelet concentrate): complete inhibition of PCR

OO [hydrogen peroxide]
revertant colonies per plate, positive control (TA102; Salmonella typhimurium, 44 h, 100 μg/plt, pH 7.4): 660
